Measurements reported in patent US20060069132A1, “Azolecarboxamide herbicides” (priority 2004, published 2006).

Columns and labels:
giant foxtail [1] = test: Test B pre-/postemergence herbicide test; format: in vivo, Setaria faberi; conditions: for Foxtail, Giant plant response rating: postemergence, visual rating, scale 0 (no effect) to 100 (complete control)
How it was run: (§1)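 Herbicidal effect was judged by eye on a 0–100 scale after plants stood 13 to 15 days in the greenhouse following pre- or postemergence treatment with surfactant-containing formulations.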

corn = test: Test B pre-/postemergence herbicide test; format: in vivo, Zea mays; conditions: for Corn plant response rating: postemergence, visual rating, scale 0 (no effect) to 100 (complete control)
How it was run: as §1

wild oat = test: Test B postemergence herbicide test; format: in vivo, Avena fatua; conditions: postemergence, visual rating, scale 0 (no effect) to 100 (complete control)
How it was run: (§2)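 Each value is a visual 0–100 response rating taken against controls 13 to 15 days after treatment in the greenhouse. Plants received formulated chemical postemergence at the 1- to 4-leaf stage or, in flooded paddy, at the 2-leaf stage.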

morningglory [2] = test: Test A pre-/postemergence herbicide test; format: in vivo, Ipomoea spp.
How it was run: (§3)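 Seeds sown in sandy loam received a preemergence directed soil spray of compound in non-phytotoxic solvent with surfactant; postemergence plants (2–10 cm, one- to two-leaf stage) were sprayed to runoff at the same time. After ~10 days in greenhouse, injury was rated visually versus untreated controls (0 = no effect, 100 = complete control).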

barnyardgrass [3] = test: Test A pre-/postemergence herbicide test; format: in vivo, Echinochloa crus-galli
How it was run: as §3

rice [4] = test: Test B flooded paddy test; format: in vivo, Oryza sativa; conditions: 1000 g ai/ha, visual rating, scale 0 to 100 (0 no effect, 100 complete control), 13 to 15 days
How it was run: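 Treated at 2-leaf (paddy) or 1–4-leaf, 2–18 cm (postemergence); greenhouse 13–15 d; visual score vs control, 0 none to 100 complete control; dash = not tested.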

morningglory [5] = test: Test B pre-/postemergence herbicide test; format: in vivo, Ipomoea coccinea; conditions: for Morningglory plant response rating: postemergence, visual rating, scale 0 (no effect) to 100 (complete control)
How it was run: (§4)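 Formulation: non-phytotoxic solvent mix with surfactant. Timing: preemergence on seed and postemergence on 2–18 cm plants, applied concurrently. Readout after 13–15 d greenhouse: visual 0–100 control rating against controls.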

lambsquarters = test: Test B pre-/postemergence herbicide test; format: in vivo, Chenopodium album; conditions: for Lambsquarters plant response rating: postemergence, visual rating, scale 0 (no effect) to 100 (complete control)
How it was run: as §1

blackgrass = test: Test B postemergence herbicide test; format: in vivo, Alopecurus myosuroides; conditions: postemergence, visual rating, scale 0 (no effect) to 100 (complete control)
How it was run: (§5)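 Scale 0–100: zero equals no visible effect, 100 complete control, judged by eye relative to controls. Timing: 13 to 15 days in greenhouse post-treatment. Growth stage at spraying: two leaves (paddy) or one to four leaves, 2–18 cm (postemergence).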

barnyardgrass [6] = test: Test B flooded paddy test; format: in vivo, Echinochloa crus-galli; conditions: 1000 g ai/ha, visual rating, scale 0 to 100 (0 no effect, 100 complete control), 13 to 15 days
How it was run: as §5

ducksalad = test: Test B flooded paddy test; format: in vivo, Heteranthera limosa; conditions: 1000 g ai/ha, visual rating, scale 0 to 100 (0 no effect, 100 complete control), 13 to 15 days
How it was run: as §5

velvetleaf [7] = test: Test A pre-/postemergence herbicide test; format: in vivo, Abutilon theophrasti
How it was run: as §3

Surinam grass = test: Test B pre-/postemergence herbicide test; format: in vivo, Urochloa decumbens; conditions: for Surinam Grass plant response rating: postemergence, visual rating, scale 0 (no effect) to 100 (complete control)
How it was run: as §1

giant foxtail [8] = test: Test A pre-/postemergence herbicide test; format: in vivo, Setaria faberi
How it was run: as §3

redroot pigweed = test: Test A pre-/postemergence herbicide test; format: in vivo, Amaranthus retroflexus
How it was run: as §3

wheat = test: Test B postemergence herbicide test; format: in vivo, Triticum aestivum; parameters: key to Wheat plant response rating: 0 = no effect, 100 = complete control; conditions: postemergence, visual rating, scale 0 (no effect) to 100 (complete control)
How it was run: as §2

barnyardgrass [9] = test: Test B pre-/postemergence herbicide test; format: in vivo, Echinochloa crus-galli; conditions: for Barnyardgrass plant response rating: postemergence, visual rating, scale 0 (no effect) to 100 (complete control)
How it was run: as §4

cocklebur = test: Test B pre-/postemergence herbicide test; format: in vivo, Xanthium strumarium; conditions: for Cocklebur plant response rating: postemergence, visual rating, scale 0 (no effect) to 100 (complete control)
How it was run: as §4

pigweed = test: Test B pre-/postemergence herbicide test; format: in vivo, Amaranthus retroflexus; conditions: for Pigweed plant response rating: postemergence, visual rating, scale 0 (no effect) to 100 (complete control)
How it was run: as §1

[10] = system: small flower umbrella sedge; test: Test B flooded paddy test; format: in vivo, Cyperus difformis; conditions: 1000 g ai/ha, visual rating, scale 0 to 100 (0 no effect, 100 complete control), 13 to 15 days
How it was run: as §5

rice [11] = test: Test B pre-/postemergence herbicide test; format: in vivo, Oryza sativa; conditions: preemergence
How it was run: as §1

velvetleaf [12] = test: Test B pre-/postemergence herbicide test; format: in vivo, Abutilon theophrasti; conditions: for Velvetleaf plant response rating: postemergence, visual rating, scale 0 (no effect) to 100 (complete control)
How it was run: as §1

large crabgrass [13] = test: Test A pre-/postemergence herbicide test; format: in vivo, Digitaria sanguinalis
How it was run: as §3

large crabgrass [14] = test: Test B pre-/postemergence herbicide test; format: in vivo, Digitaria sanguinalis; conditions: for Crabgrass, Large plant response rating: postemergence, visual rating, scale 0 (no effect) to 100 (complete control)
How it was run: as §1

[15] = 125 g ai/ha, 0 = no effect, 100 = complete control, preemergence
[16] = 500 g ai/ha, visual rating 0-100, 0 no effect, 100 complete control, preemergence
[17] = Postemergence, 500 g ai/ha, 0 to 100 scale, 0 no effect, 100 complete control
[18] = Postemergence, 2000 g ai/ha, 0 to 100 scale, 0 no effect, 100 complete control
[19] = Preemergence, 2000 g ai/ha, visual rating, 0 to 100 scale (0 no effect, 100 complete control)
[20] = preemergence, 500 g ai/ha, visual injury, 0 to 100 scale (0 no effect, 100 complete control)

For `CCOC(=O)c1cccc(NC(=O)c2sc(C(C)(C)C)nc2CC)c1` [Compound 204], which “Foxtail, Giant plant response rating (0 to 100 scale)” value (giant foxtail [1]; [15]) is on record?
The value was 0.

And the “Plant response rating, Foxtail, Giant” value (giant foxtail [1]; [16])?
The value was 0.

And the “Foxtail, Giant plant response rating” value (giant foxtail [1]; 125 g ai/ha)?
The value was 10.

And the “Foxtail, Giant plant response rating” value (giant foxtail [1]; 500 g ai/ha)?
The value was 20.

What about the “Corn plant response rating (0 to 100 scale)” value (corn; [15]) of the same compound?
Its value is 0.

What about the “Plant response rating, Corn” value (corn; [16]) of the same compound?
The value was 0.

What about the “Corn plant response rating” value (corn; 125 g ai/ha) of the same compound?
The value was 20.

What about the “Corn plant response rating” value (corn; 500 g ai/ha) of the same compound?
Its value is 20.

What about the “Oat, Wild plant response rating” value (wild oat; 125 g ai/ha) of the same compound?
Its value is 10.

And the “Oat, Wild plant response rating” value (wild oat; 500 g ai/ha)?
The value was 20.

What about the “Morningglory plant response rating” value (morningglory [2]; [17]) of the same compound?
The value was 20.

And the “Plant response rating, Morningglory” value (morningglory [2]; [18])?
The value was 15.

And the “Morningglory plant response rating” value (morningglory [2]; [19])?
Its value is 25.

What about the “Morningglory plant response rating” value (morningglory [2]; [20]) of the same compound?
The value was 10.

What about the “Barnyardgrass plant response rating” value (barnyardgrass [3]; [17]) of the same compound?
The value was 25.

And the “Plant response rating, Barnyardgrass” value (barnyardgrass [3]; [18])?
The value was 30.

And the “Barnyardgrass plant response rating” value (barnyardgrass [3]; [19])?
Its value is 5.

What about the “Barnyardgrass plant response rating” value (barnyardgrass [3]; [20]) of the same compound?
Its value is 0.

What about the “Rice plant response rating” value (rice [4]) of the same compound?
Its value is 30.

And the “Plant response rating, Morningglory” value (morningglory [5]; [16])?
Its value is 10.

What about the “Morningglory plant response rating” value (morningglory [5]; 125 g ai/ha) of the same compound?
The value was 20.

What about the “Morningglory plant response rating” value (morningglory [5]; 500 g ai/ha) of the same compound?
The value was 40.

What about the “Lambsquarters plant response rating (0 to 100 scale)” value (lambsquarters; [15]) of the same compound?
Its value is 0.

And the “Plant response rating, Lambsquarters” value (lambsquarters; [16])?
The value was 0.

What about the “Lambsquarters plant response rating” value (lambsquarters; 125 g ai/ha) of the same compound?
Its value is 30.

And the “Lambsquarters plant response rating” value (lambsquarters; 500 g ai/ha)?
The value was 50.

What about the “Blackgrass plant response rating” value (blackgrass; 125 g ai/ha) of the same compound?
The value was 20.

What about the “Blackgrass plant response rating” value (blackgrass; 500 g ai/ha) of the same compound?
The value was 20.

What about the “Barnyardgrass plant response rating” value (barnyardgrass [6]) of the same compound?
The value was 20.

And the “Ducksalad plant response rating” value (ducksalad)?
Its value is 40.

What about the “Velvetleaf plant response rating” value (velvetleaf [7]; [17]) of the same compound?
The value was 40.

And the “Plant response rating, Velvetleaf” value (velvetleaf [7]; [18])?
The value was 60.

And the “Velvetleaf plant response rating” value (velvetleaf [7]; [19])?
The value was 25.

What about the “Velvetleaf plant response rating” value (velvetleaf [7]; [20]) of the same compound?
Its value is 5.

And the “Surinam Grass plant response rating (0 to 100 scale)” value (Surinam grass; [15])?
Its value is 0.

And the “Plant response rating, Surinam Grass” value (Surinam grass; [16])?
Its value is 0.

And the “Surinam Grass plant response rating” value (Surinam grass; 125 g ai/ha)?
The value was 20.

And the “Surinam Grass plant response rating” value (Surinam grass; 500 g ai/ha)?
Its value is 50.

What about the “Foxtail, Giant plant response rating” value (giant foxtail [8]; [17]) of the same compound?
Its value is 25.

What about the “Plant response rating, Foxtail, Giant” value (giant foxtail [8]; [18]) of the same compound?
Its value is 25.

And the “Foxtail, Giant plant response rating” value (giant foxtail [8]; [19])?
Its value is 10.

And the “Foxtail, Giant plant response rating” value (giant foxtail [8]; [20])?
Its value is 0.

And the “Pigweed plant response rating” value (redroot pigweed; [17])?
The value was 50.

What about the “Plant response rating, Pigweed” value (redroot pigweed; [18]) of the same compound?
Its value is 60.

What about the “Pigweed plant response rating” value (redroot pigweed; [19]) of the same compound?
Its value is 10.

And the “Pigweed plant response rating” value (redroot pigweed; [20])?
Its value is 0.

And the “Wheat plant response rating” value (wheat; 125 g ai/ha)?
Its value is 10.

What about the “Wheat plant response rating” value (wheat; 500 g ai/ha) of the same compound?
The value was 30.

And the “Barnyardgrass plant response rating (0 to 100 scale)” value (barnyardgrass [9]; [15])?
Its value is 0.

And the “Plant response rating, Barnyardgrass” value (barnyardgrass [9]; [16])?
The value was 0.

What about the “Barnyardgrass plant response rating” value (barnyardgrass [9]; 125 g ai/ha) of the same compound?
The value was 10.

And the “Barnyardgrass plant response rating” value (barnyardgrass [9]; 500 g ai/ha)?
The value was 10.

And the “Cocklebur plant response rating (0 to 100 scale)” value (cocklebur; [15])?
Its value is 0.

What about the “Plant response rating, Cocklebur” value (cocklebur; [16]) of the same compound?
The value was 0.

What about the “Cocklebur plant response rating” value (cocklebur; 125 g ai/ha) of the same compound?
The value was 90.

And the “Cocklebur plant response rating” value (cocklebur; 500 g ai/ha)?
Its value is 90.

What about the “Pigweed plant response rating (0 to 100 scale)” value (pigweed; [15]) of the same compound?
The value was 0.

And the “Plant response rating, Pigweed” value (pigweed; [16])?
The value was 10.

What about the “Pigweed plant response rating” value (pigweed; 125 g ai/ha) of the same compound?
Its value is 50.

And the “Pigweed plant response rating” value (pigweed; 500 g ai/ha)?
Its value is 70.

And the “Sedge, Umbrella plant response rating” value [10]?
Its value is 80.

What about the “Rice plant response rating (0 to 100 scale)” value (rice [11]; 125 g ai/ha, 0 = no effect, 100 = complete control) of the same compound?
Its value is 0.

And the “Plant response rating, Rice” value (rice [11]; 500 g ai/ha, visual rating 0-100, 0 no effect, 100 complete control)?
The value was 0.

And the “Velvetleaf plant response rating (0 to 100 scale)” value (velvetleaf [12]; [15])?
Its value is 0.

What about the “Plant response rating, Velvetleaf” value (velvetleaf [12]; [16]) of the same compound?
The value was 0.

What about the “Velvetleaf plant response rating” value (velvetleaf [12]; 125 g ai/ha) of the same compound?
Its value is 60.

What about the “Velvetleaf plant response rating” value (velvetleaf [12]; 500 g ai/ha) of the same compound?
Its value is 70.

What about the “Crabgrass, Large plant response rating” value (large crabgrass [13]; [17]) of the same compound?
Its value is 30.

And the “Plant response rating, Crabgrass, Large” value (large crabgrass [13]; [18])?
The value was 30.

What about the “Crabgrass, Large plant response rating” value (large crabgrass [13]; [19]) of the same compound?
The value was 10.

What about the “Crabgrass, Large plant response rating” value (large crabgrass [13]; [20]) of the same compound?
Its value is 0.

And the “Crabgrass, Large plant response rating (0 to 100 scale)” value (large crabgrass [14]; [15])?
Its value is 0.

What about the “Plant response rating, Crabgrass, Large” value (large crabgrass [14]; [16]) of the same compound?
Its value is 0.

What about the “Crabgrass, Large plant response rating” value (large crabgrass [14]; 125 g ai/ha) of the same compound?
The value was 10.

And the “Crabgrass, Large plant response rating” value (large crabgrass [14]; 500 g ai/ha)?
Its value is 10.
